Laboratory results taken from ChEMBL document CHEMBL1145021, “First X-ray cocrystal structure of a bacterial FabH condensing enzyme and a small molecule inhibitor achieved using rational design and homology modeling” (J Med Chem, 2003).

Tests used:
[1] = Inhibitory activity against Streptococcus pneumoniae Beta-ketoacyl-ACP synthase III (FabH) (initiator of the fatty acid synthesis)
[2] = Inhibitory activity against Escherichia coli Beta-ketoacyl-ACP synthase III (FabH) (initiator of the fatty acid synthesis)
[3] = Inhibitory activity against Escherichia coli FabH (initiator of the fatty acid synthesis)
[4] = Inhibitory activity against Streptococcus pneumoniae FabH (initiator of the fatty acid synthesis)
[5] = Inhibitory activity against Escherichia coli Beta-ketoacyl-ACP synthase III (initiator of the fatty acid synthesis)
[6] = Inhibitory activity against Streptococcus pneumoniae Beta-ketoacyl-ACP synthase III (initiator of the fatty acid synthesis)

SMILES	IC50 [1] [nM]	IC50 [2] [nM]	further results
O=C(O)Cn1c(C(=O)O)cc2cc(OCc3c(Cl)cccc3Cl)ccc21	1200	78000	
O=C(O)c1cc2cc(OCc3c(Cl)cccc3Cl)ccc2n1Cc1ccc(O)cc1			IC50 [3]: 2000 nM; IC50 [4]: 53 nM
O=C(O)c1ccc(Cn2c(C(=O)O)cc3cc(OCc4c(Cl)cccc4Cl)ccc32)cc1			IC50 [5]: 2500 nM; IC50 [6]: 200 nM
O=C(O)c1cc2cc(OCc3c(Cl)cccc3Cl)ccc2n1Cc1cc2c(cc1Cl)OCO2			IC50 [3]: 830 nM; IC50 [4]: 40 nM
O=C(CCCCCn1c(C(=O)O)cc2cc(OCc3c(Cl)cccc3Cl)ccc21)NS(=O)(=O)c1ccccc1	46	4600	

The next lines start with results.

IC50 [1] [nM]	IC50 [2] [nM]	SMILES	further results
140		O=C(O)CCCCCn1c(C(=O)O)cc2cc(OCc3c(Cl)cccc3Cl)ccc21	
170	2000	O=C(O)CCCCCCn1c(C(=O)O)cc2cc(OCc3c(Cl)cccc3Cl)ccc21	
62	1700	O=C(O)CCCn1c(C(=O)O)cc2cc(OCc3c(Cl)cccc3Cl)ccc21	
